Reference: the RepoRT retention time repository

Assay: Agilent ZORBAX 300 SB-C18, 150 × 1 mm, 3.5 µm; A: water + 0.01% heptafluorobutyric acid; B: acetonitrile + 0.01% heptafluorobutyric acid; gradient (min/%B) 0/0 100/90
Settings: stereoisomer not certain

In order of rising LC retention time:
1. CCN(CC)CC(CP(=O)(O)O)P(=O)(O)O (configuration not stated)  1.13 min
2. O=C(O)c1cncc(C(=O)O)c1  3.03 min
3. CC(N)(CO)CO  3.29 min
4. C[n+]1cccc(C(N)=O)c1  3.76 min
5. OCc1cccnc1  4.28 min
6. CSC(=N)N  4.66 min
7. Cn1c(=O)c2cc(S(=O)(=O)O)ccc2n(C)c1=O  5.36 min
8. NC(=O)C1CCCOC1 (configuration not stated)  5.49 min
9. Cc1cc(C(=O)O)nc2ccccc12  5.5 min
10. Cn1c(=O)[nH]c(=O)n(C)c1=O  5.9 min
11. NCCN  5.99 min
12. Nc1nc2c([nH]c(=O)n2C2CC(O)C(CO)O2)c(=O)[nH]1 (configuration not stated)  6.05 min
13. Cc1ccncc1  6.26 min
14. CN(C)CC(C)(C)CO  6.43 min
15. CC1CNCCN1 (configuration not stated)  6.48 min
16. CC1CNC(C)CN1 (configuration not stated)  6.62 min
17. Cn1c(=O)n(C)c2cc(N)ccc21  6.8 min
18. Cc1oc(C)c(C(N)=O)c1C(N)=O  6.82 min
19. CN(C)c1ccc(N)cc1  6.86 min
20. CN(C)C(=O)c1ccc(N)cc1  6.87 min
21. Cc1cncc(C)c1  6.88 min
22. Cc1cc(N)cc(C)c1O  6.91 min
23. CCOC(=O)c1c(N)n(C(C)=O)[nH]c1=O  6.93 min
24. C[N+](C)(C)c1ccccc1  7 min
25. NCc1cccc(CN)c1  7.04 min
26. c1cc(C2=NC(c3ccncc3)C(c3ccncc3)N2)ccn1 (configuration not stated)  7.12 min
27. c1nc2cc3ncc[nH]c3cc2n1  7.13 min
28. Nc1ncnc(N)n1  7.16 min
29. N=C(N=C(N)N)N1CCSCC1  7.17 min
30. Nc1ccc(NC(=O)Nc2ccc(N)cc2)cc1  7.24 min
31. Cn1cnc2ccccc21  7.26 min
32. c1cc(CCc2ccncc2)ccn1  7.28 min
33. Nc1ccc(N2CCCC2=O)cc1  7.31 min
34. O=C(O)CNC(=O)c1ccccc1  7.38 min
35. CC1(C)CC(N)CC(C)(CN)C1 (configuration not stated)  7.39 min
36. CNC1CCCCC1  7.45 min
37. CN(CCCN)CCCN  7.45 min
38. CC1(C)CC(NC(=O)C(=O)NC2CC(C)(C)NC(C)(C)C2)CC(C)(C)N1  7.48 min
39. Cc1cnc(C)cn1  7.49 min
40. CCN(C(C)C)C(C)C  7.51 min
41. Cc1ccccc1N  7.59 min
42. CCNc1cc(C)ccc1O  7.6 min
43. CC1C(=O)CC[N+](C)(C)C1C (configuration not stated)  7.63 min
44. O=C(O)c1ccc2nccnc2c1  7.67 min
45. Nc1nc2ccccc2[nH]1  7.69 min
46. O=C(O)CCNc1cc(C(=O)O)ccc1C(=O)O  7.69 min
47. O=C(O)CC1C(=O)Nc2ccccc21 (configuration not stated)  7.72 min
48. OCCNCc1ccccc1  7.72 min
49. Cc1cccc(N)c1C  8.05 min
50. CCc1cnccn1  8.09 min
51. O=C(CNC(=O)c1ccco1)NN=Cc1ccco1  8.12 min
52. CCN(CC)CC(=O)Nc1c(C)ccc(O)c1C  8.16 min
53. c1cncc(-c2nc3ccccc3[nH]2)c1  8.19 min
54. O=C1Nc2ccccc2C1CCCO (configuration not stated)  8.22 min
55. CC(NC(=O)c1cccnc1)C(=O)N1CCCCC1 (configuration not stated)  8.28 min
56. Cc1nn(CC(=O)NC2CC(C)(C)NC(C)(C)C2)c(=O)c2ccccc12  8.35 min
57. CCN(CC)CCNc1c(N)c(=O)oc2ccccc12  8.37 min
58. CN(C)CCC(C)(O)Cc1ccccc1 (configuration not stated)  8.38 min
59. CC[N+](CC)(CC)CCOc1cccc(OCC[N+](CC)(CC)CC)c1OCC[N+](CC)(CC)CC  8.44 min
60. COc1ccc(N)c(C)c1C  8.59 min
61. COc1ccc2c3c1OC1C(=O)CCC4C(C2)N(C)CCC314 (configuration not stated)  8.61 min
62. Cc1cc(C)c2cccc(C)c2n1  8.65 min
63. NCCCSc1ccccc1  8.67 min
64. Cc1cccc(Nc2cc(=O)[nH]c(=O)[nH]2)c1C  8.71 min
65. CCN(CC)C(=O)N1CCN(c2ccc(N)cc2)CC1  8.72 min
66. CCOC(=O)C1C(C)=NC(=O)NC1C (configuration not stated)  8.75 min
67. CC(=O)c1ccc2c(c1)n(C)c(=O)n2C  9 min
68. Nc1ccc(C(O)(c2ccc(N)cc2)c2ccc(N)cc2)cc1  9.07 min
69. Cc1ccc(-c2nn[nH]n2)n1C  9.09 min
70. CCOc1ccccc1NC(=O)c1cc(=O)[nH]c(=O)[nH]1  9.16 min
71. CC(=O)c1c[nH]c2ccccc12  9.25 min
72. CCN(CC)C(=O)c1ccc(O)c(OC)c1  9.39 min
73. COC(=O)C(c1ccccc1)C1CCCCN1 (configuration not stated)  9.49 min
74. CN(C)C(=O)c1ccc(N=CNc2ccc(C(=O)N(C)C)cc2)cc1  9.51 min
75. O=C(CCCCCN1C(=O)c2ccccc2C1=O)NCc1ccccn1  9.55 min
76. COC(=O)c1cccc(N=C2N=C(N)c3ccccc32)c1  9.59 min
77. CCN(CC)CCNC(=O)c1ccccc1NC(=O)Nc1ccccc1  9.62 min
78. C=C(C)CC1C=CCC(CC(=C)C)N1 (configuration not stated)  9.63 min
79. Cc1cccc(OCC(O)CNC(C)C)c1 (configuration not stated)  9.65 min
80. CC(C)NCC(O)COc1ccc(COCCOC(C)C)cc1 (configuration not stated)  10 min
81. Cc1cccc2c1N(C)C(=O)C2=O  10.1 min
82. Cc1ccc2c(c1)C(=O)c1cnc(C)cc1-2  10.3 min
83. Nc1cccc(-c2cc3ccccc3oc2=O)c1  10.4 min
84. NC(Cc1ccccc1)C(=O)Nc1ccc2ccccc2c1 (configuration not stated)  10.4 min
85. COc1ccc2c(c1)C13CCCCC1C(C2)N(C)CC3 (configuration not stated)  10.6 min
86. CC(=O)c1cc2ccccc2oc1=O  10.8 min
87. CC(C)(C)c1ccc(-c2nc(NCc3cccnc3)c3ccccc3n2)cc1  10.9 min
88. CCCCCCCC(N)=O  11 min
89. O=c1[nH]c(-c2ccccc2)nc2ccccc12  11 min
90. Cc1ccc(-c2nn(CC(=O)Nc3cccnc3)c(=O)c3ccccc23)cc1  11.3 min
91. Oc1ccc(-c2cnc3ccccc3n2)cc1  11.4 min
92. c1cncc(CN=Nc2nc(N3CCCCC3)nc(N3CCCCC3)n2)c1  11.5 min
93. c1ccc2c(N3CCCCC3)nc(N3CCCC3)nc2c1  11.7 min
94. c1ccc(C(NCc2cccs2)c2ccccc2)cc1  11.8 min
95. CC(C)CNc1c(N)c(=O)oc2ccccc12  11.9 min
96. Cc1ccc2c(c1)C1CN(C)CCC1N2C(=S)NC1CCCCC1 (configuration not stated)  12.2 min
97. O=C1NN=C(c2ccccc2)CC1c1c[nH]c2ccccc12 (configuration not stated)  12.3 min
98. Cc1cccc(NC(=S)NNC(=O)c2cccc(C)c2)c1  12.3 min
99. Cc1ccccc1Nc1nc(Nc2ccccc2C)c2ccccc2n1  12.5 min
100. CCOC(=O)c1[nH]c(C)cc1C  12.5 min
101. Cc1cc(C(=O)O)c(C)n1CCc1c[nH]c2ccccc12  12.5 min
102. Cn1c(C(c2ccccc2)c2ccccc2)n[nH]c1=S  12.9 min
103. Cc1ccc(C)n1-c1ccc(C(=O)O)cc1  13 min
104. CC(=O)Oc1ccc2c(c1)cc(C)n2C  13.3 min
105. CC(C)(C)NC(=S)NCc1ccccc1  13.4 min
106. CCCCCCCCCCCCNC  13.5 min
107. Cc1[nH]c2ccccc2c1CCNC(=O)C1CCCCC1  13.6 min
108. COc1ccc(C=Cc2nc(=O)c3ccccc3o2)cc1  13.8 min
109. Cn1c(=O)c(=O)n(CC(=O)c2ccc3c(c2)CCCC3)c2ccccc21  14.1 min
110. CC(C)CC1(C)NC(=S)N(c2ccccc2)N1 (configuration not stated)  14.1 min
111. Cc1ccc(Nc2cc(=O)oc3ccccc23)cc1C  14.2 min
112. COc1cccc(C(=O)N(c2ccccc2)C2CC(C)N(C(C)=O)c3ccccc32)c1 (configuration not stated)  14.3 min
113. CCCCc1c(O)c2ccccc2n(-c2ccccc2)c1=O  14.5 min
114. Cc1ccccc1C=NNC(=O)C(O)(c1ccccc1)c1ccccc1  14.5 min
115. COc1cc(C=CC(=O)c2ccc3c(c2)OCO3)cc(OC)c1OC  14.7 min
116. CC(c1ccccc1)C1Nc2ccccc2C(=O)N1c1ccccc1 (configuration not stated)  15 min
117. Cc1ccc(C(=O)Nc2ccc3[nH]c4c(c3c2)CCCC4)cc1  15.1 min
118. O=C1C(=Cc2ccoc2)CCCC1=Cc1ccoc1  15.7 min
119. Cc1cc(C)c2c(=O)n(CC(=O)NC(C)CCc3ccccc3)c(=O)n(-c3ccccc3)c2n1 (configuration not stated)  15.7 min
120. Cc1ccc(C)c2c1ccn2C  15.8 min
121. S=C(NCc1ccc2[nH]c3c(c2c1)CCCC3)Nc1cccc2ccccc12  16 min
122. CCCCCCC=CC(C)=O  16.2 min
123. Cc1ccc(-c2cnc3ccccc3n2)cc1  16.3 min
124. O=C(c1ccc(-c2ccccc2)cc1)N1CCN(c2ccccc2)CC1  16.5 min
125. CCCCCCCN1C(=O)c2ccccc2C1(O)Cc1ccccc1 (configuration not stated)  16.8 min
126. CCc1c(C)[nH]c(C(=O)OCc2ccccc2)c1C  17.1 min
127. Cc1cccc(-c2nnc(-c3ccccc3C)o2)c1  17.1 min
128. CCCCCCn1c2ccccc2c2cc(C(=O)O)ccc21  17.8 min
129. O=C(Nc1ccc(C(=O)c2ccccc2)cc1)c1ccc(-c2ccccc2)cc1  17.8 min
130. Cc1ccc(-c2nc3ccccc3s2)cc1  17.9 min
131. CCc1cccc2ccn(Cc3ccccc3)c12  18.4 min
132. CCn1ccc(C(C)C)c1-c1ccccc1  19 min
